Source: patent US6680307B1, “Use of ibandronate for promoting osseointegration of endoprostheses” (Roche Diagnostics GmbH, priority 1998, dated 2004)

Key:
[1] = tested on: titanium implants and hydroxyl apatite-coated implants in the bone of 6 month-old Sprague Dawley rats; experiment: Time sequence of osseointegration of implants in rat femur (Example 1, histomorphometry); assay type: in vivo
Procedure: (§1) 6-month old female Spregue-Dawley rats were kept in cages and subjected to a 12-hour day and night rhythm. They had free access to food and water. The animals were kept and fed in accordance with legal regulations and the research was carried out with the approval and under the supervision of the Darmstadt Governmental Presidium.
(§2) The animals were divided at random among the various test groups. They were anaethesized by intraperitoneal administration of ketamine (75 mg/kg) and xylazine (5 mg/kg). Both back legs were sharped and disinfected with Betaisadonna solution. Medioparapatellar arthrotomy of the knee joint was carried out under aseptic conditions and the patella was laterally dislocated. The medullary canal was opened distally in the intercondylar notch and the canal was drilled with a 1.0 mm diameter Kirchner wire down to the proximal metaphysis of the femur. A titanium Kirchner wire was then inserted into the right femur and a hydroxyl apatite-coated Kirchner wire into the left femur as far as the proximal metaphysis. The access hole was closed with bone wax, the patella was replaced, the extensor apparatus of the refined leg was reconstructed, the soft tissue was adapted and the skin was closed by an intracutaneous seam. The back legs were then tested for normal post-operative movement. The animals were at liberty to move freely in their cages and the activity and the load on the hind legs was checked daily.
(§3) Ibandronate or 0.9% NaCl was administered daily as per Examples 1 and 2. After the preset treatment time the animals were euthanased in a carbon dioxide chamber and directly afterwards the two femurs were taken out, completely freed from soft tissue and fixed in alcohol for subsequent histerlogical treatment. […] Particular attention was given to the areas where a change in the bone occurred such as an increase or decrease in trabecular bone, a change in bone density, loosening seams on the implant, periostal or endostal changes. Evaluation in this case was purely descriptive.
(§4) Description of production of preparations by the cut microsection technique for producing histological sections of conventional non-cuttable tissue after Prof. Donath. (K. Donath, G. Breuner: A method for the study of undecalcified bones and teeth with attached soft tissue. The Saege-Schliff (sawing and grinding) technique., J. Oral Pathology 1982, 11:318-26). […]
(§5) Histological investigation of bones under the optical microscope gives knowledge about the overall structure and the distribution of bone components. […] Quantitative evaluation of the results was by histomorphometry.
(§6) The bone-covered area on the metal implant was shown and calculated by histomorphometry, using special software. […]

[2] = tested on: titanium implants and hydroxyl apatite-coated implants in the bone of 6-month old rats; experiment: Osseointegration of implants in rat femur at a defined time, daily versus bolus administration (Example 2); assay type: in vivo
Procedure: as §1, §2, §3, §4, §5, §6

[3] = tested on: periprosthetic bone loss; settings: treatment with higher doses; cited from earlier work
[4] = tested on: bone-tooth implant; settings: treatment for 4 weeks (1 week before the operation and 3 weeks after); cited from earlier work

CCCCCN(C)CCC(O)(P(=O)(O)O)P(=O)(O)O [ibandronate, 1-hydroxy-3-(N-methyl-N-pentyl)aminopropyl-1,1-diphosphonic acid]
Temporal advantage after treatment versus untreated group ([1]; 25 μg FAE/kg/d daily s.c.): more than 50% | Time to complete integration of the implant ([1]; 25 μg FAE/kg/d daily s.c., untreated group nearly complete ingrowth after 37 days): 18 days | Time to complete integration ([1]; daily dose of 20 to 30 μg/kg body weight (i.v. equivalent)): 15 to 20 days | Osseointegration compared with the untreated group ([1]; daily subcutaneous ibandronate after implantation, rats): appreciably improved | Increase in osseointegration compared with the control group ([2]; 2a: s.c. 25 μg FAE/kg/d for 15-20 days): 50% | Increase in osseointegration compared with the control group ([2]; 2b: s.c. bolus administration, 25 μg FAE/kg/d): 50% | Difference in osseointegration between bolus-treated groups and control group ([2]; 2b: s.c. bolus administration, total dose of 1, 5 and 25 μg FAE/kg/d): Very significant differences | Difference in osseointegration between bolus administration and cumulative administration ([2]; 2c: bolus versus cumulative administration over the entire period): No significant differences

NCCCC(O)(P(=O)(O)O)P(=O)(O)O [alendronate]
Bone resorption [3]: considerably slowed down

O=P(O)(O)C(Cl)(Cl)P(=O)(O)O [Clodronate]
Osteogenesis (bone formation) compared with untreated patients [4]: more intensive
